Test results as given in publication PMC12250302, “Synthesis, Antimicrobial Activities, and Model of Action of Novel Tetralone Derivatives Containing Aminoguanidinium Moiety” (International Journal of Molecular Sciences, 2025).
≈ marks a conversion by molar mass, not a printed value. Entries after “also recorded” stand apart in the source; their conditions may differ.

How the values were obtained:
E. coli ATCC 25922 = experiment: MIC and MBC testing, broth microdilution; format: cell-based, Escherichia coli; conditions: Escherichia coli
Outline: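 Broth microdilution in MH broth, 2-fold compound series from DMSO stocks; inoculum from log-phase culture diluted to 1 × 10^6 CFU/mL prior to addition; 37 °C, 18 h.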

[1] = system: human liver cell line (HepG2); experiment: Cytotoxicity, CCK-8 method; format: cell-based
Description: (§1) The CCK-8 method was used to evaluate the toxicity of 2D to four cell lines (lung cancer cell line (A549), human liver cell line (HepG2), human embryonic kidney 293T cells (HEK 293-T), and human colon adenocarcinoma cell line (Caco-2)). Cells with a density of 1 × 10^5 cells/well were added to 96-well plates and then incubated for 24 h at 5% CO2 and 37 °C. Subsequently, after treatment with different concentrations of 2D for 24 h, the CCK-8 kit was added according to the prescribed procedure. Following an incubation at 37 °C for 0.5 h, the absorbances at 450 nm were detected. The […] was calculated according to the following formula:Cytotoxic (%) = (Atest/Acontrol) × 100%(2)

[2] = system: lung cancer cell line (A549); experiment: Cytotoxicity, CCK-8 method; format: cell-based
Description: as §1

[3] = system: human embryonic kidney 293T cells (HEK 293-T); experiment: Cytotoxicity, CCK-8 method; format: cell-based
Description: as §1

[4] = system: human colon adenocarcinoma cell line (Caco-2); experiment: Cytotoxicity, CCK-8 method; format: cell-based
Description: as §1

MRSA-2 [5] = experiment: MRSA-induced mouse skin abscess model; format: in vivo
Description: The MRSA-induced mouse skin abscess model was used to assess the in vivo antibacterial effects of 2D. Female KM mice, aged 4–6 weeks and weighing 20 ± 2 g, were purchased from the Laboratory Animal Center, Lanzhou Institute of Veterinary Medicine, Chinese Academy of Agricultural Sciences. The animal experiments were approved by the Ethics Committee of Research Involving Animals of the Lanzhou Institute of Husbandry and Pharmaceutical Science of CAAS (Approval number: 2025-03) and performed in accordance with the guidelines of the Ethics Committee for Animal Experiments. Prior to the formal experiment, all mice were acclimated for 5 days. The mice were kept in a pathogen-free environment with a 12 h light/12 h dark cycle, 50% ± 10% humidity, and a temperature of 24 °C ± 2 °C. […] The depilation method employed was as follows: depilatory paste was applied to the designated area for 10 min, after which it was thoroughly washed with 0.9% saline. The mice were semi-anesthetized by intraperitoneal injection with sodium Ulatan (TCI, 20%, 100 μL). […] After a 24 h interval, the administration was repeated, and 24 h after the last administration, the volume of abscess was measured and calculated. Then, the skin of the infected site and main organs were collected for tissue bacterial load and pathological detection.

MRSA-2 [6] = experiment: Membrane depolarization assay, DiSC3(5); format: cell-based, Staphylococcus aureus; conditions: 2, 4, and 8 μg/mL
Description: MRSA-2 was cultivated in MH broth, with a final concentration of 1 × 10^8 CFU/mL. After centrifugation, the supernatant was discarded. The bacterial precipitate was washed thrice and resuspended with PBS. Subsequently, the bacterial resuspension (180 μL) and the DiSC5 (10 μL, 3 μM) were incubated in the dark for 30 min. The fluorescence intensity was measured at 2 min intervals for a period of 10 min. After the fluorescence intensity was stabilized, 10 μL of 2D (final concentrations of 1, 2, 4, and 8 μg/mL) was added, respectively. The fluorescence intensity was measured at 2 min intervals for a total duration of 30 min. The excitation/emission wavelength was 622/670 nm.

MRSA-2 [7] = experiment: Fluorescence microscopy assay (DAPI/PI); format: cell-based, Staphylococcus aureus; conditions: vancomycin 4 µg/mL; 2D 4 and 8 μg/mL; 2 h
Description: MRSA-2 was cultivated to the logarithmic growth phase, then washed with PBS and resuspended in PBS until the concentration of bacterial suspension reached 1 × 10^8 CFU/mL. […] Thereafter, the samples were incubated with DAPI (10 μM) and PI (10 μM) in the dark for 15 min. The bacterial cells were then subjected to observation under a fluorescence microscope. DMSO served as the negative controls.

MRSA-2 biofilm = experiment: Biofilm elimination assay (crystal violet); format: cell-based, Staphylococcus aureus; conditions: 0.25 μg/mL, 24 h
Description: The ability of 2D to eliminate biofilm was evaluated. MRSA-2 (1 × 10^6 CFU/mL) was incubated in 96-well plates for 24 h until biofilm formation. The planktonic bacteria were discarded and washed thrice with PBS. […] According to the above method, the OD575 nm value was detected after the following steps: PBS washing, methanol fixation, crystal violet staining, and ethanol incubation.

MRSA-2 [8] = format: cell-based, Staphylococcus aureus; conditions: not told
Description: MRSA-2 bacterial precipitates in the logarithmic growth phase were collected by centrifugation, washed, and resuspended in PBS to a density of 1 × 10^6 CFU/mL. PI (10 μM, 40 μL) was added to a black 96-well plate along with 150 μL of bacterial suspension. After an incubation period of 30 min, fluorescence was detected at excitation wavelengths of 535 nm and emission wavelengths of 617 nm at 5 min intervals until a stable state was reached.

[H]/N=C(\N)NN=C1CCCc2cc(OCCCCCCC)ccc21 [Compound 2D, (E)-2-(6-(heptyloxy)-3,4-dihydronaphthalen-1(2H)-ylidene)hydrazine-1-carboximidamide]
MIC (E. coli ATCC 25922; ATCC25922, 18 h, read-out: MIC): 4 µg/mL (≈ 12.6 µM) | MBC (E. coli ATCC 25922; ATCC25922, read-out: MBC): 8 µg/mL (≈ 25.3 µM) | IC50 ([1]; Homo sapiens, HepG2, 24 h, CCK-8): 6 µg/mL (≈ 19 µM) | Selectivity index (SI) ([1]; SI = IC50 (HepG2)/MIC ATCC 29213): 12.00 | IC50 ([2]; Homo sapiens, A549, 24 h, CCK-8): 3.57 µg/mL (≈ 11.3 µM) | Selectivity index (SI) ([2]; SI = IC50 (A549)/MIC ATCC 29213): 7.14 | IC50 ([3]; Homo sapiens, HEK 293-T, 24 h, CCK-8): 13.1 µg/mL (≈ 41.4 µM) | Selectivity index (SI) ([3]; SI = IC50 (HEK 293-T)/MIC ATCC 29213): 26.18 | IC50 ([4]; Homo sapiens, CaCo-2, 24 h, CCK-8): 9.86 µg/mL (≈ 31.2 µM) | Selectivity index (SI) ([4]; SI = IC50 (CaCo-2)/MIC ATCC 29213): 19.72 | purulent lesions at the infection site (skin histopathology) (MRSA-2 [5]; 5 mg/kg): significantly smaller | volume of skin abscess (MRSA-2 [5]; 5 mg/kg, injected 2 h and 24 h postinfection, compared to model and solvent group): reduced volume | purulent foci (skin histopathology) (MRSA-2 [5]; 10 mg/kg): almost no purulent foci | skin abscess appearance (MRSA-2 [5]; 10 mg/kg, injected 2 h and 24 h postinfection): devoid of any discernible abscesses | bacterial load of the skin at the infected site (MRSA-2 [5]; 2D 5 and 10 mg/kg, vancomycin 5 mg/kg, compared with model and solvent group): decreased bacterial load; also recorded: significantly reduced | histopathology of the major organs (MRSA-2 [5]; infected mice after treatment, H&E): no discernible lesions | DiSC3(5) fluorescence intensity (depolarization) (MRSA-2 [6]): increased instantaneously | PI red fluorescence (damaged membranes) (MRSA-2 [7]): a marked tendency to emit red fluorescence | biofilm elimination rate (MRSA-2 biofilm): 21.4% | PI fluorescence intensity (inner membrane permeability) (MRSA-2 [8]): significantly enhanced
